Measured values taken from the supplement of paper PMC10307832.

Assays:
Assay in all cases: relative viability (nuclei count vs DMSO), 5 days (fraction); higher = more cells survive
17-AAG + OSI-027 = compound: C=CCNC1=C2C[C@@H](C)C[C@H](OC)[C@H](O)[C@@H](C)/C=C(\C)[C@H](OC(N)=O)[C@@H](OC)/C=C\C=C(/C)C(=O)NC(=CC1=O)C2=O [17-AAG] + COc1cccc2cc(-c3nc([C@H]4CC[C@H](C(=O)O)CC4)n4ncnc(N)c34)[nH]c12 [OSI-027] (partner 0.5 µM)
Procedure, shortened: (§1)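 Dosing by pin tool came one day after lung cancer cell lines were seeded in 1536-well plates, using either one drug or a fixed anchor-drug dose plus five library-drug doses (not always all listed) in √10 steps. After 5 days, nuclei were counted on 4× images. Relative viability is treated-well nuclei count divided by vehicle-well nuclei count, and values are medians of duplicate plates.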

17-AAG + Crizotinib = compound: C=CCNC1=C2C[C@@H](C)C[C@H](OC)[C@H](O)[C@@H](C)/C=C(\C)[C@H](OC(N)=O)[C@@H](OC)/C=C\C=C(/C)C(=O)NC(=CC1=O)C2=O [17-AAG] + C[C@@H](Oc1cc(-c2cnn(C3CCNCC3)c2)cnc1N)c1c(Cl)ccc(F)c1Cl [Crizotinib] (partner 1 µM)
Procedure, shortened: as §1

17-AAG + Linsitinib = compound: C=CCNC1=C2C[C@@H](C)C[C@H](OC)[C@H](O)[C@@H](C)/C=C(\C)[C@H](OC(N)=O)[C@@H](OC)/C=C\C=C(/C)C(=O)NC(=CC1=O)C2=O [17-AAG] + C[C@]1(O)C[C@@H](c2nc(-c3ccc4ccc(-c5ccccc5)nc4c3)c3c(N)nccn32)C1 [Linsitinib] (partner 1 µM)
Procedure, shortened: as §1

17-AAG + Tozasertib = compound: C=CCNC1=C2C[C@@H](C)C[C@H](OC)[C@H](O)[C@@H](C)/C=C(\C)[C@H](OC(N)=O)[C@@H](OC)/C=C\C=C(/C)C(=O)NC(=CC1=O)C2=O [17-AAG] + Cc1cc(Nc2cc(N3CCN(C)CC3)nc(Sc3ccc(NC(=O)C4CC4)cc3)n2)n[nH]1 [Tozasertib] (partner 0.1 µM)
Procedure, shortened: as §1

Cell Line | relative viability (17-AAG + OSI-027; first compound 0.00128 µM) | relative viability (17-AAG + OSI-027; first compound 0.004048 µM) | relative viability (17-AAG + OSI-027; first compound 0.0128 µM) | relative viability (17-AAG + OSI-027; first compound 0.04048 µM) | relative viability (17-AAG + OSI-027; first compound 0.128 µM) | relative viability (17-AAG + Crizotinib; first compound 0.00128 µM) | relative viability (17-AAG + Crizotinib; first compound 0.004048 µM) | relative viability (17-AAG + Crizotinib; first compound 0.0128 µM) | relative viability (17-AAG + Crizotinib; first compound 0.04048 µM) | relative viability (17-AAG + Crizotinib; first compound 0.128 µM) | relative viability (17-AAG + Linsitinib; first compound 0.00128 µM) | relative viability (17-AAG + Linsitinib; first compound 0.004048 µM) | relative viability (17-AAG + Linsitinib; first compound 0.0128 µM) | relative viability (17-AAG + Linsitinib; first compound 0.04048 µM) | relative viability (17-AAG + Linsitinib; first compound 0.128 µM) | relative viability (17-AAG + Tozasertib; first compound 0.00128 µM) | relative viability (17-AAG + Tozasertib; first compound 0.004048 µM) | relative viability (17-AAG + Tozasertib; first compound 0.0128 µM) | relative viability (17-AAG + Tozasertib; first compound 0.04048 µM) | relative viability (17-AAG + Tozasertib; first compound 0.128 µM)
201T | 0.823 | 1.01 | 0.443 | 0.165 | 0.165 | 1.04 | 1.07 | 1.02 | 0.886 | 0.805 | 1.06 | 1.05 | 1.01 | 0.985 | 0.863 | 0.988 | 0.915 | 0.872 | 0.891 | 0.388
PC-14 | 0.803 | 0.289 | 0.0511 | 0.0734 | 0.0603 | 0.944 | 0.855 | 0.732 | 0.176 | 0.124 | 1 | 0.879 | 0.575 | 0.169 | 0.124 | 0.55 | 0.472 | 0.27 | 0.067 | 0.0544
UMC-11 | 0.469 | 0.512 | 0.255 | 0.233 | 0.202 | 0.717 | 0.58 | 0.399 | 0.148 | 0.0804 | 0.967 | 0.943 | 0.751 | 0.299 | 0.178 | 0.222 | 0.219 | 0.225 | 0.217 | 0.222
PC-3 [JPC-3] | 0.729 | 0.787 | 0.851 |  | 0.653 | 0.956 | 0.99 | 0.833 |  | 0.91 | 1 | 0.883 | 0.959 |  | 0.911 | 0.894 | 0.847 | 0.922 |  | 0.839
LK-2 | 0.26 | 0.225 | 0.151 | 0.138 | 0.144 | 0.212 | 0.249 | 0.357 | 0.232 | 0.176 | 0.575 | 0.463 | 0.615 | 0.479 | 0.136 | 0.161 | 0.174 | 0.153 | 0.227 | 0.172
COR-L23 | 0.853 | 0.786 | 0.817 | 0.661 | 0.0974 | 0.725 | 0.614 | 0.749 | 0.339 | 0.0896 | 0.919 | 0.952 | 0.943 | 0.473 | 0.138 | 0.2 | 0.25 | 0.225 | 0.158 | 0.0795
NCI-H1944 | 0.406 | 0.403 | 0.321 | 0.184 | 0.164 | 1.01 | 1.18 | 1.02 | 0.799 | 0.289 | 1.25 | 1.22 | 1.16 | 0.872 | 0.319 | 0.239 | 0.248 | 0.219 | 0.213 | 0.138
HCC-78 | 0.375 | 0.416 | 0.405 | 0.39 | 0.384 | 0.378 |  | 0.351 | 0.273 | 0.235 | 0.626 |  | 0.608 | 0.62 | 0.294 | 0.443 | 0.401 | 0.418 | 0.637 | 0.223
NCI-H3122 | 0.713 | 0.169 | 0.126 | 0.12 | 0.114 | 0.285 | 0.258 | 0.233 | 0.246 | 0.173 | 1.02 | 0.985 | 0.254 | 0.207 | 0.138 | 0.473 | 0.187 | 0.0915 | 0.104 | 0.0922
SW 1573 | 0.639 | 0.444 | 0.163 | 0.108 | 0.091 | 0.764 | 0.872 | 0.687 | 0.167 | 0.106 | 0.987 | 0.901 | 0.647 | 0.249 | 0.128 | 0.234 | 0.254 | 0.117 | 0.104 | 0.0907
EMC-BAC-2 | 0.464 | 0.486 | 0.438 | 0.3 | 0.216 | 0.712 | 0.753 | 0.756 | 0.902 | 0.281 | 0.875 | 0.772 | 0.837 | 0.803 | 0.265 | 0.286 | 0.297 | 0.347 | 0.26 | 0.226
NCI-H647 | 0.585 | 0.553 | 0.187 | 0.0899 | 0.0977 | 1.11 | 0.755 | 0.101 | 0.0977 | 0.08 | 1.16 | 0.596 | 0.18 | 0.118 | 0.074 | 0.419 | 0.222 | 0.0879 | 0.0995 | 0.0751
LCLC-97TM1 | 0.506 | 0.575 | 0.392 | 0.241 | 0.18 | 0.325 | 0.387 | 0.433 | 0.395 | 0.295 | 0.192 | 0.198 | 0.211 | 0.269 | 0.182 | 0.213 | 0.268 | 0.268 | 0.251 | 0.21
H3255 | 0.569 | 0.576 | 0.49 | 0.274 | 0.268 | 0.926 | 0.833 | 0.646 | 0.196 | 0.161 | 0.953 | 1.01 | 0.798 | 0.201 | 0.188 | 0.957 | 0.496 | 0.612 | 0.234 | 0.228
LXF-289 | 0.823 | 0.779 | 0.53 | 0.104 | 0.0657 | 0.789 | 0.783 | 0.73 | 0.572 | 0.163 | 0.964 | 0.954 | 0.924 | 0.52 | 0.179 | 0.204 | 0.22 | 0.203 | 0.127 | 0.0677
NCI-H2347 | 0.323 | 0.395 | 0.464 | 0.241 | 0.201 | 0.747 | 0.791 | 0.738 | 0.486 | 0.317 | 0.91 | 0.84 | 0.997 | 0.656 | 0.37 | 0.564 | 0.518 | 0.507 | 0.278 | 0.303
